Results reported in patent US7786081B2, “Peptide composition” (Pepsyn Ltd., priority 1993, dated 2010).

Columns and labels:
[1] = tested on: Human keratinocytes (HatKat); assay: Growth of keratinocytes (cell count, Coulter counter); assay type: cell-based
Protocol: Human keratinocytes (HatKat) were grown in keratinocyte growth medium (TCS Cellworks Ltd.) until 20% confluence. Then, in the same medium, the keratinocytes were grown for three days with 0.5% foetal calf serum (FCS), at which point the cells were counted in a Coulter® counter. The cell numbers obtained are set out in Table 3 below.

[2] = known agent, stated drawback; cited from earlier work

Compound	increase in the growth of keratinocytes ([1]; 10 ng/ml EGF vs medium with 0.5% FCS)	Number of cells ([1]; Medium with 0.5% FCS + 10 ng/ml EGF, three days, medium alone 23,777)	erythema at the site of application [2]
EGF: epidermal growth factor, comparator in the keratinocyte growth test (NSDSECPLSHDGYCLHDGVCMYIEALDKYACNCVVGYIGERCQYRDLKWWELR; UniProt P01133 971-1023, looked up)	relatively modest increase	29,356	
CC1=C(/C=C/C(C)=C/C=C/C(C)=C/C(=O)O)C(C)(C)CCC1 [all-trans retinoic acid]			produces marked erythema
